Data from ChEMBL document CHEMBL1201862, “PubChem BioAssay data set” (2004).
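48-hour exposure; five concentrations; linearly interpolated endpoints. At the GI50, growth is halved.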 The source made the active and inactive calls. Rule as the data show it: active = GI50 up to about 1.1 µM and inactive = higher.

How the values were obtained:
Assay in all cases: NCI-60 cell line screen, 48 h
SK-MEL-2 = tested on: SK-MEL-2
SNB-75 = tested on: SNB-75
MCF7 = tested on: MCF7
MOLT-4 = tested on: MOLT-4
OVCAR-5 = tested on: OVCAR-5
ACHN = tested on: ACHN
CCRF-CEM = tested on: CCRF-CEM
Malme-3M = tested on: Malme-3M
RXF 393 = tested on: RXF 393
OVCAR-4 = tested on: OVCAR-4
HOP-92 = tested on: HOP-92
SK-OV-3 = tested on: SK-OV-3
SF-268 = tested on: SF-268
RPMI-8226 = tested on: RPMI-8226
HL-60 = tested on: HL-60
MDA-N = tested on: MDA-N
SF-539 = tested on: SF-539
NCI/ADR-RES = tested on: NCI/ADR-RES
NCI-H23 = tested on: NCI-H23
SN12C = tested on: SN12C
PC-3 = tested on: PC-3
UACC-62 = tested on: UACC-62
SF-295 = tested on: SF-295
NCI-H460 = tested on: NCI-H460
SNB-19 = tested on: SNB-19
DU-145 = tested on: DU-145
Hs-578T = tested on: Hs-578T
SW-620 = tested on: SW-620
IGROV-1 = tested on: IGROV-1
U-251 = tested on: U-251
UACC-257 = tested on: UACC-257
COLO 205 = tested on: COLO 205
786-0 = tested on: 786-0
M14 = tested on: M14
CAKI-1 = tested on: CAKI-1
NCI-H226 = tested on: NCI-H226
A549 = tested on: A549
KM12 = tested on: KM12
LOX IMVI = tested on: LOX IMVI
A498 = tested on: A498
TK-10 = tested on: TK-10
HCT-116 = tested on: HCT-116
EKVX = tested on: EKVX
HOP-62 = tested on: HOP-62
NCI-H522 = tested on: NCI-H522
SK-MEL-28 = tested on: SK-MEL-28
HCT-15 = tested on: HCT-15
MDA-MB-231 = tested on: MDA-MB-231
MDA-MB-435 = tested on: MDA-MB-435
K562 = tested on: K562
UO-31 = tested on: UO-31
SK-MEL-5 = tested on: SK-MEL-5
OVCAR-8 = tested on: OVCAR-8
OVCAR-3 = tested on: OVCAR-3
HT-29 = tested on: HT-29
SR = tested on: SR
HCC 2998 = tested on: HCC 2998
T47D = tested on: T47D

`COc1cc2c(cc1OC)CC(=O)c1cc(OC)c(OC)cc1/C=C\2` was tested, and the GI50 (SK-MEL-2) was > 12.5 µM (inactive), the GI50 (SNB-75) was 4.83 µM (inactive) and the GI50 (MCF7) was > 12.5 µM (inactive). For the same molecule, the GI50 (MOLT-4) was 9.93 µM (inactive), the GI50 (OVCAR-5) was > 12.5 µM (inactive) and the GI50 (ACHN) was > 12.5 µM (inactive). The GI50 (CCRF-CEM) was > 12.5 µM (inactive), the GI50 (Malme-3M) was 2.93 µM (inactive) and the GI50 (RXF 393) was > 12.5 µM (inactive). The GI50 (OVCAR-4) was > 12.5 µM (inactive), the GI50 (HOP-92) was > 12.5 µM (inactive) and the GI50 (SK-OV-3) was > 12.5 µM (inactive). For the same molecule, the GI50 (SF-268) was > 12.5 µM (inactive), the GI50 (RPMI-8226) was > 12.5 µM (inactive) and the GI50 (HL-60) was 2.24 µM (inactive). The GI50 (MDA-N) was 2.8 µM (inactive), the GI50 (SF-539) was > 12.5 µM (inactive) and the GI50 (NCI/ADR-RES) was > 12.5 µM (inactive). For the same molecule, the GI50 (NCI-H23) was > 12.5 µM (inactive), the GI50 (SN12C) was > 12.5 µM (inactive) and the GI50 (PC-3) was > 12.5 µM (inactive). For the same molecule, the GI50 (UACC-62) was > 12.5 µM (inactive), the GI50 (SF-295) was 7.16 µM (inactive) and the GI50 (NCI-H460) was > 12.5 µM (inactive). The GI50 (SNB-19) was > 12.5 µM (inactive), the GI50 (DU-145) was > 12.5 µM (inactive) and the GI50 (Hs-578T) was > 12.5 µM (inactive). The GI50 (SW-620) was 6.37 µM (inactive), the GI50 (IGROV-1) was 10.8 µM (inactive) and the GI50 (U-251) was > 12.5 µM (inactive). The GI50 (UACC-257) was > 12.5 µM (inactive), the GI50 (COLO 205) was 11.1 µM (inactive) and the GI50 (786-0) was > 12.5 µM (inactive). For the same molecule, the GI50 (M14) was 9.57 µM (inactive), the GI50 (CAKI-1) was > 12.5 µM (inactive) and the GI50 (NCI-H226) was > 12.5 µM (inactive). The GI50 (A549) was > 12.5 µM (inactive), the GI50 (KM12) was 4.55 µM (inactive) and the GI50 (LOX IMVI) was > 12.5 µM (inactive). For the same molecule, the GI50 (A498) was > 12.5 µM (inactive), the GI50 (TK-10) was > 12.5 µM (inactive) and the GI50 (HCT-116) was > 12.5 µM (inactive). The GI50 (EKVX) was > 12.5 µM (inactive), the GI50 (HOP-62) was > 12.5 µM (inactive) and the GI50 (NCI-H522) was 9.44 µM (inactive). For the same molecule, the GI50 (SK-MEL-28) was > 12.5 µM (inactive), the GI50 (HCT-15) was 5.85 µM and the GI50 (MDA-MB-231) was > 12.5 µM (inactive). The GI50 (MDA-MB-435) was 3.92 µM (inactive), the GI50 (K562) was 3.45 µM (inactive) and the GI50 (UO-31) was > 12.5 µM (inactive). The GI50 (SK-MEL-5) was 7.74 µM (inactive), the GI50 (OVCAR-8) was > 12.5 µM (inactive) and the GI50 (OVCAR-3) was > 12.5 µM (inactive). For the same molecule, the GI50 (HT-29) was 5.79 µM (inactive).
`CC(O)c1c2c(cc3c1CC1(C3)Cc3cc4c(c(C(C)O)c3C1)CCC4)CCC2` (stereo not drawn) was tested, and the GI50 (SK-MEL-2) was 26.9 µM (inactive), the GI50 (MCF7) was 11.8 µM (inactive) and the GI50 (MOLT-4) was 4.13 µM (inactive). For the same molecule, the GI50 (OVCAR-5) was 22.5 µM (inactive), the GI50 (ACHN) was 11.2 µM (inactive) and the GI50 (CCRF-CEM) was 5.82 µM (inactive). The GI50 (SR) was 8.38 µM (inactive), the GI50 (Malme-3M) was 15.9 µM (inactive) and the GI50 (RXF 393) was 14.9 µM (inactive). For the same molecule, the GI50 (OVCAR-4) was 2.86 µM (inactive), the GI50 (HOP-92) was 15.3 µM (inactive) and the GI50 (SK-OV-3) was 23.2 µM (inactive). For the same molecule, the GI50 (RPMI-8226) was 12.6 µM (inactive), the GI50 (HL-60) was 4.76 µM (inactive) and the GI50 (SF-539) was 22.4 µM (inactive). The GI50 (NCI/ADR-RES) was 19.1 µM (inactive), the GI50 (NCI-H23) was 15.5 µM (inactive) and the GI50 (SN12C) was 16.7 µM (inactive). The GI50 (PC-3) was 18.7 µM (inactive), the GI50 (UACC-62) was 19.3 µM (inactive) and the GI50 (SF-295) was 21 µM (inactive). For the same molecule, the GI50 (Hs-578T) was 22.5 µM (inactive), the GI50 (HCC 2998) was 17.3 µM (inactive) and the GI50 (IGROV-1) was 20.3 µM (inactive). The GI50 (U-251) was 14.1 µM (inactive), the GI50 (T47D) was 11.9 µM (inactive) and the GI50 (UACC-257) was 13.9 µM (inactive). The GI50 (COLO 205) was 13.4 µM (inactive), the GI50 (786-0) was 14.8 µM (inactive) and the GI50 (M14) was 18.6 µM (inactive). For the same molecule, the GI50 (NCI-H226) was 15.6 µM (inactive), the GI50 (A549) was 13.6 µM (inactive) and the GI50 (KM12) was 21.8 µM (inactive). For the same molecule, the GI50 (LOX IMVI) was 17.5 µM (inactive), the GI50 (A498) was 14.9 µM (inactive) and the GI50 (TK-10) was 27.7 µM (inactive). The GI50 (HCT-116) was 12.1 µM (inactive), the GI50 (EKVX) was 27.9 µM (inactive) and the GI50 (HOP-62) was 20.7 µM (inactive). For the same molecule, the GI50 (NCI-H522) was 13.1 µM (inactive), the GI50 (HCT-15) was 14.8 µM and the GI50 (MDA-MB-231) was 16.8 µM (inactive). The GI50 (MDA-MB-435) was 15.8 µM (inactive), the GI50 (K562) was 9.59 µM (inactive) and the GI50 (UO-31) was 1.69 µM (inactive). For the same molecule, the GI50 (SK-MEL-5) was 13 µM (inactive), the GI50 (OVCAR-8) was 46.2 µM (inactive) and the GI50 (OVCAR-3) was 12.4 µM (inactive). For the same molecule, the GI50 (HT-29) was 12.9 µM (inactive).
In the case of `O=c1c(Nc2ccccc2)cn(CCOc2ccc(Cl)cc2)c(=O)n1CCOc1ccc(Cl)cc1`, the GI50 (MOLT-4) is reported as > 100 µM (inactive), the GI50 (ACHN) is reported as > 100 µM (inactive) and the GI50 (CCRF-CEM) is reported as 64 µM (inactive). The GI50 (SR) was 96.2 µM (inactive), the GI50 (RXF 393) was 36.4 µM (inactive) and the GI50 (OVCAR-4) was 26.7 µM (inactive). For the same molecule, the GI50 (SF-268) was 89.9 µM (inactive), the GI50 (RPMI-8226) was > 100 µM (inactive) and the GI50 (MDA-N) was > 100 µM (inactive). For the same molecule, the GI50 (NCI-H23) was > 100 µM (inactive), the GI50 (SN12C) was > 100 µM (inactive) and the GI50 (PC-3) was 41.1 µM (inactive). The GI50 (UACC-62) was > 100 µM (inactive), the GI50 (SF-295) was > 100 µM (inactive) and the GI50 (NCI-H460) was > 100 µM (inactive). The GI50 (SNB-19) was > 100 µM (inactive), the GI50 (DU-145) was 75.2 µM (inactive) and the GI50 (Hs-578T) was 60 µM (inactive). For the same molecule, the GI50 (SW-620) was > 100 µM (inactive), the GI50 (HCC 2998) was 22.2 µM (inactive) and the GI50 (IGROV-1) was > 100 µM (inactive). For the same molecule, the GI50 (U-251) was > 100 µM (inactive), the GI50 (UACC-257) was > 100 µM (inactive) and the GI50 (COLO 205) was > 100 µM (inactive). For the same molecule, the GI50 (786-0) was 28.1 µM (inactive), the GI50 (M14) was 60.3 µM (inactive) and the GI50 (CAKI-1) was > 100 µM (inactive). For the same molecule, the GI50 (A549) was > 100 µM (inactive), the GI50 (KM12) was > 100 µM (inactive) and the GI50 (LOX IMVI) was > 100 µM (inactive). For the same molecule, the GI50 (A498) was > 100 µM (inactive), the GI50 (HCT-116) was > 100 µM (inactive) and the GI50 (EKVX) was 55.7 µM (inactive). For the same molecule, the GI50 (SK-MEL-28) was > 100 µM (inactive), the GI50 (HCT-15) was over 100 µM and the GI50 (MDA-MB-435) was 39.1 µM (inactive). For the same molecule, the GI50 (K562) was > 100 µM (inactive), the GI50 (UO-31) was 51.9 µM (inactive) and the GI50 (SK-MEL-5) was 75.2 µM (inactive).
With `CC(=O)O[C@H]1C(=O)[C@@]2(C)C(C(OC(=O)c3ccccc3)[C@]3(O)CC(OC(=O)[C@H](OC(=O)CCC(=O)O)C(NC(=O)c4ccccc4)c4ccccc4)C(C)=C1C3(C)C)C1(OC(C)=O)COC1C[C@@H]2OC(=O)CCC(=O)O` (stereo partly drawn) the GI50 (Malme-3M) was 11.6 µM (inactive), the GI50 (OVCAR-4) was > 79.4 µM (inactive) and the GI50 (T47D) was 0.822 µM (active). The GI50 (SK-MEL-28) was 5.6 µM (inactive) and the GI50 (UO-31) was 83.9 µM (inactive).
